Where two headings read alike, the source gives them in different places.
What was measured:
[1] = molecular target: T1, full-length beta-Catenin (Uniprot ID P35222) (Homo sapiens, UniProt P35222); assay: Fluorescence polarization IC50 (beta-catenin / 5FAM-TCF4 10-53 competition); format: binding; details: fluorescence polarization; read-out: beta-Catenin FP IC50
T1 construct: 10 nM full-length beta-Catenin (Uniprot ID P35222)
T1 sequence (P35222 1-781): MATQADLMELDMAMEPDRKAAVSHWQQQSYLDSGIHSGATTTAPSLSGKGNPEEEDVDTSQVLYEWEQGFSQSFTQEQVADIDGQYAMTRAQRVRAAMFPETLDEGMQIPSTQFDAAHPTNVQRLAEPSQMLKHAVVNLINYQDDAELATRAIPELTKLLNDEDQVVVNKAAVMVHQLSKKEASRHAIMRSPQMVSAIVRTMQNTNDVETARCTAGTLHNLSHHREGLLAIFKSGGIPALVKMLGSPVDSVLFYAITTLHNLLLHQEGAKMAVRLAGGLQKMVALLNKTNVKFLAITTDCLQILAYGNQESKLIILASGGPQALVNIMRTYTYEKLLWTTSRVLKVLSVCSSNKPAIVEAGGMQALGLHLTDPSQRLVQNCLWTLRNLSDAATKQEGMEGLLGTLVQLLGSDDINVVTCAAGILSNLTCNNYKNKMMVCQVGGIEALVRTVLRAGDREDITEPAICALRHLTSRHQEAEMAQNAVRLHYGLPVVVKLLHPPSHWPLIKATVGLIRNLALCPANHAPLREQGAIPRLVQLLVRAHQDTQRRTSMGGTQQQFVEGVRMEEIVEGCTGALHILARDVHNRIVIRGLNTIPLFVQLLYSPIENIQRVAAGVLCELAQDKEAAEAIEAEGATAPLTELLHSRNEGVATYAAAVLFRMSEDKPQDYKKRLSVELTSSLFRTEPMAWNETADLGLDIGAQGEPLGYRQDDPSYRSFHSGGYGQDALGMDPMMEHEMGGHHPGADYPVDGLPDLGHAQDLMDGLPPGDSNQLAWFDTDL

[2] = molecular target: T2, beta-catenin/TCF4 engagement (Homo sapiens, UniProt P35222); assay: Nano-BRET target engagement assay (B-cat-Halo & TCF4-Luc in HEK293 cells); format: cell-based; details: absolute IC50; read-out: NanoBRET Abs IC50
T2 construct: expressed in transfected cells; host or cells: HEK293
T2 sequence (P35222 1-781): T1 sequence (P35222 1-781)

[3] = system: TCF/LEF luciferase Reporter in DLD1 cells; assay: TCF reporter assay (DLD1 TCF/LEF luciferase reporter, Bright-Glo); format: cell-based; details: absolute IC50
Method in brief: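 DLD1 cells stably carrying a TCF/LEF luciferase reporter were plated at 5000 cells/well in RPMI + 4% FBS and treated overnight with a 1:2 compound dilution series. Bright-Glo luminescence read on day 3; viability by CellTiter-Glo. Absolute IC50 determined.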

[4] = read-out: DLD1 reporter assay Abs IC50
[5] = read-out: DLD1 4% Abs IC50, DLD1 reporter, 4%
[6] = read-out: DLD1 4% Abs IC50, DLD1 reporter assay, 4%

Row | SMILES | IC50 [1] | IC50 [2] | IC50 [3, 4] | IC50 [3, 5] | IC50 [3, 6]
1 | CCNC(=O)[C@H](CCC(N)=O)NC(=O)[C@H](Cc1csc2ccccc12)NC(=O)[C@H](Cc1ccccc1Cl)NC(=O)[C@]12CCN(C1)C(=O)OCCCC=CCCCC1(CCCC=CC[C@]3(CCCN3C(C)=O)C(=O)N[C@@H](CC(=O)O)C(=O)N[C@@H](CC(C)(C)C)C(=O)N1)C(=O)N[C@@H](CC(=O)O)C(=O)N[C@@H](CN(CC(=O)O)CC(F)(F)F)C(=O)N[C@@H](C)C(=O)N[C@@H](C)C(=O)N[C@@H](Cc1ccccc1)C(=O)N[C@@H]([C@@H](C)O)C(=O)N2 (stereo partly drawn) [I-1240, Ac-PL3-Asp-Npg-B5-Asp-TfeGA-Ala-Ala-Phe-Thr-PyrS2-2C1F-BztA-Gln-NHEt] | 0.033 µM | 11.5 µM | 4.9 µM |  | 
2 | CC(=O)N1CCC[C@]12CC=CCCCC1(CCCC=CCCCOC(=O)N3CC[C@@](C(=O)N[C@@H](Cc4ccccc4C(F)(F)F)C(=O)N[C@@H](Cc4csc5ccccc45)C(=O)N[C@@H](CO)C(N)=O)(C3)NC(=O)[C@H](CC(C)C)NC(=O)[C@H](Cc3ccccc3)NC(=O)[C@H](C)NC(=O)[C@H](C)NC(=O)[C@H](Cn3cc(CC4(C(=O)O)CCCCC4)nn3)NC(=O)[C@H](CC(=O)O)NC1=O)NC(=O)[C@H](CC(C)(C)C)NC(=O)[C@H](CC(=O)O)NC2=O (stereo partly drawn) [I-2521, Ac-PL3-Asp-Npg-B5-Asp-[CH2CChCO2H]TriAzDap-Ala-Ala-Phe-Leu-PyrS2-2F3MeF-BztA-Ser-NH2] | 0.038 µM | 5.6 µM |  | 3 µM | 
3 | CC(=O)N1CCC[C@]12CC=CCCCC1(CCCC=CCCCOC(=O)N3CC[C@@](C(=O)N[C@@H](Cc4ccsc4)C(=O)N[C@@H](Cc4csc5ccccc45)C(=O)N[C@@H](CC(N)=O)C(=O)N[C@@H](CC(C)C)C(=O)N[C@@H](CC(C)C)C(=O)N[C@@H](CC(C)C)C(N)=O)(C3)NC(=O)[C@H](CC(C)C)NC(=O)[C@H](Cc3ccccc3)NC(=O)[C@H](C)NC(=O)[C@H](C)NC(=O)[C@H](Cc3cccc(C(=O)O)c3)NC(=O)[C@H](CC(=O)O)NC1=O)NC(=O)[C@H](CC(C)(C)C)NC(=O)[C@H](CC(=O)O)NC2=O (stereo partly drawn) [I-2276, Ac-PL3-Asp-Npg-B5-Asp-3COOHF-Ala-Ala-Phe-Leu-PyrS2-3Thi-BztA-Asn-Leu-Leu-Leu-NH2] | 0.157 µM | 4 µM |  | 3.9 µM | 
4 | CC(=O)N1CCC[C@]12CC=CCCCC1(CCCC=CCCCOC(=O)N3CC[C@@](C(=O)N[C@@H](Cc4ccccc4Cl)C(=O)N[C@@H](Cc4csc5ccccc45)C(=O)N[C@H](CO)CC(C)C)(C3)NC(=O)[C@H]([C@@H](C)O)NC(=O)[C@H](Cc3ccccc3)NC(=O)[C@H](C)NC(=O)[C@H](C)NC(=O)[C@H](CC(=O)O)NC(=O)[C@H](CC(=O)O)NC1=O)NC(=O)[C@H](CC(C)(C)C)NC(=O)[C@H](CC(=O)O)NC2=O (stereo partly drawn) [I-1247, Ac-PL3-Asp-Npg-B5-Asp-Asp-Ala-Ala-Phe-Thr-PyrS2-2C1F-BztA-Leuo1] | 0.033 µM | > 20 µM | > 20 µM |  | 
5 | CC(=O)N1CCC[C@]12CC=CCCCC1(CCCC=CCCCOC(=O)N3CC[C@@](C(=O)N[C@@H](Cc4ccsc4)C(=O)N[C@@H](Cc4csc5ccccc45)C(=O)N[C@H](CO)[C@@H](C)O)(C3)NC(=O)[C@H](CC(C)C)NC(=O)[C@H](Cc3ccccc3)NC(=O)[C@H](C)NC(=O)[C@H](C)NC(=O)[C@H](Cc3ccccc3C(=O)O)NC(=O)[C@H](CC(=O)O)NC1=O)NC(=O)[C@H](CC(C)(C)C)NC(=O)[C@H](CC(=O)O)NC2=O (single isomer, unassigned) [I-1671, Ac-PL3-Asp-Npg-B5-Asp-2COOHF-Ala-Ala-Phe-Leu-PyrS2-3Thi-BztA-Thro1] | 0.028 µM | 8 µM |  |  | 1.7 µM
6 | CC[C@H](C)[C@H](NC(=O)[C@H](CC(C)C)NC(=O)[C@H](CCC(N)=O)NC(=O)[C@H](Cc1csc2ccccc12)NC(=O)[C@H](Cc1ccccc1C(F)(F)F)NC(=O)[C@]12CCN(C1)C(=O)OCCCC=CCCCC1(CCCC=CC[C@]3(CCCN3C(C)=O)C(=O)N[C@@H](CC(=O)O)C(=O)N[C@@H](CC(C)(C)C)C(=O)N1)C(=O)N[C@@H](CC(=O)O)C(=O)N[C@@H](Cc1cccc(C(=O)O)c1)C(=O)N[C@@H](C)C(=O)N[C@@H](C)C(=O)N[C@@H](Cc1ccccc1)C(=O)N[C@@H](CC(C)C)C(=O)N2)C(N)=O (stereo partly drawn) [I-2385, Ac-PL3-Asp-Npg-B5-Asp-3COOHF-Ala-Ala-Phe-Leu-PyrS2-2F3MeF-BztA-Gln-Leu-Ile-NH2] | 0.563 µM | 4 µM |  | 1.8 µM | 
7 | CCNC(=O)[C@H](CO)NC(=O)[C@H](Cc1csc2ccccc12)NC(=O)[C@H](Cc1ccccc1Cl)NC(=O)[C@]12CCN(C1)C(=O)OCCCC=CCCCC1(CCCC=CC[C@]3(CCCN3C(C)=O)C(=O)N[C@@H](CC(=O)O)C(=O)N[C@@H](CC(C)(C)C)C(=O)N1)C(=O)N[C@@H](CC(=O)O)C(=O)N[C@@H](CC(=O)O)C(=O)N[C@@H](C)C(=O)N[C@@H](C)C(=O)N[C@@H](Cc1ccccc1)C(=O)N[C@@H]([C@@H](C)O)C(=O)N2 (stereo partly drawn) [I-1244, Ac-PL3-Asp-Npg-B5-Asp-Asp-Ala-Ala-Phe-Thr-PyrS2-2C1F-BztA-Ser-NHEt] | 0.018 µM | 17.7 µM | 13.9 µM | 15.9 µM | 

The next compounds have a lower IC50 [1] than those just listed; values first:

Row | IC50 [1] | IC50 [2] | IC50 [3, 4] | IC50 [3, 5] | IC50 [3, 6] | SMILES
8 | 0.014 µM | 4.8 µM |  | 3.9 µM |  | CC(=O)N1CCC[C@]12CC=CCCCC1(CCCC=CCCCOC(=O)N3CC[C@@](C(=O)N[C@@H](Cc4ccccc4C(F)(F)F)C(=O)N[C@@H](Cc4csc5ccccc45)C(=O)N[C@@H](CCC(N)=O)C(N)=O)(C3)NC(=O)[C@H](CC(C)C)NC(=O)[C@H](Cc3ccccc3)NC(=O)[C@H](C)NC(=O)[C@H](C)NC(=O)[C@H](CC(=O)O)NC(=O)[C@H](CC(=O)O)NC1=O)NC(=O)[C@H](CC(C)(C)C)NC(=O)[C@H](CC(=O)O)NC2=O (stereo partly drawn) [I-1318, Ac-PL3-Asp-Npg-B5-Asp-Asp-Ala-Ala-Phe-Leu-PyrS2-2F3MeF-BztA-Gln-NH2]
9 | 0.014 µM | 6.2 µM |  |  | 3.9 µM | CC(=O)NCCCC[C@H](NC(=O)[C@H](Cc1csc2ccccc12)NC(=O)[C@H](Cc1ccsc1)NC(=O)[C@]12CCN(C1)C(=O)OCCCC=CCCCC1(CCCC=CC[C@]3(CCCN3C(C)=O)C(=O)N[C@@H](CC(=O)O)C(=O)N[C@@H](CC(C)(C)C)C(=O)N1)C(=O)N[C@@H](CC(=O)O)C(=O)N[C@@H](CN(CC(=O)O)CC(F)(F)F)C(=O)N[C@@H](C)C(=O)N[C@@H](C)C(=O)N[C@@H](Cc1ccccc1)C(=O)N[C@@H](CC(C)C)C(=O)N2)C(N)=O (stereo partly drawn) [I-1709, Ac-PL3-Asp-Npg-B5-Asp-TfeGA-Ala-Ala-Phe-Leu-PyrS2-3Thi-BztA-AcLys-NH2]
10 | 0.013 µM | 24.3 µM | 15.9 µM | 16.2 µM |  | CC(=O)N1CCC[C@]12CC=CCCCC1(CCCC=CCCCOC(=O)N3CC[C@@](C(=O)N[C@@H](Cc4ccccc4Cl)C(=O)N[C@@H](Cc4csc5ccccc45)C(=O)N[C@@H](C)CO)(C3)NC(=O)[C@H]([C@@H](C)O)NC(=O)[C@H](Cc3ccccc3)NC(=O)[C@H](C)NC(=O)[C@H](C)NC(=O)[C@H](CC(=O)O)NC(=O)[C@H](CC(=O)O)NC1=O)NC(=O)[C@H](CC(C)(C)C)NC(=O)[C@H](CC(=O)O)NC2=O (stereo partly drawn) [I-1246, Ac-PL3-Asp-Npg-B5-Asp-Asp-Ala-Ala-Phe-Thr-PyrS2-2C1F-BztA-Alao1]
11 | 0.013 µM | 4.5 µM |  |  | 3.4 µM | CC(=O)N1CCC[C@]12CC=CCCCC1(CCCC=CCCCOC(=O)N3CC[C@@](C(=O)N[C@@H](Cc4ccccc4Cl)C(=O)N[C@@H](Cc4csc5ccccc45)C(=O)N[C@@H](CCC(N)=O)C(N)=O)(C3)NC(=O)[C@H](CC(C)C)NC(=O)[C@H](Cc3ccccc3)NC(=O)[C@H](C)NC(=O)CNC(=O)[C@H](Cc3cccc(C(=O)O)c3)NC(=O)[C@H](CC(=O)O)NC1=O)NC(=O)[C@H](CC(C)(C)C)NC(=O)[C@H](CC(=O)O)NC2=O (stereo partly drawn) [I-1684, Ac-PL3-Asp-Npg-B5-Asp-3COOHF-Gly-Ala-Phe-Leu-PyrS2-2C1F-BztA-Gln-NH2]
12 | 0.01 µM | 6.5 µM |  |  | 2.6 µM | CC(=O)N1CCC[C@]12CC=CCCCC1(CCCC=CCCCOC(=O)N3CC[C@@](C(=O)N[C@@H](Cc4ccsc4)C(=O)N[C@@H](Cc4csc5ccccc45)C(=O)N[C@@H](CCC(N)=O)C(N)=O)(C3)NC(=O)[C@H](CC(C)C)NC(=O)[C@H](Cc3ccccc3)NC(=O)[C@H](C)NC(=O)[C@H](C)NC(=O)[C@H](CN(CC(=O)O)Cc3c(F)c(F)c(F)c(F)c3F)NC(=O)[C@H](CC(=O)O)NC1=O)NC(=O)[C@H](CC(C)(C)C)NC(=O)[C@H](CC(=O)O)NC2=O (stereo partly drawn) [I-1632, Ac-PL3-Asp-Npg-B5-Asp-[Pfbn]GA-Ala-Ala-Phe-Leu-PyrS2-3Thi-BztA-Gln-NH2]
